Where “and” joins values, the source holds several entries; their conditions need not be identical. Identical values can stand only once.
Tests used:
[1] = tested on: neutral fat in liver and adipose tissue and liver cholesterol; test: 3H2O incorporation into neutral fat in liver and adipose tissue and into liver cholesterol in vivo; design: species or system rat
Description: (§1) Rats that have previously been starved for 48 hours, were meal-fed or fed ad libitum a high carbohydrate, fat-free diet for 3-5 days, the diet being supplemented with the active compounds of formula (I) at dosages of 25-250 mg per Kg body weight per day. The biological effects in-vivo were evaluated by following the rate of incorporation of injected radioactive precursors (mainly ^3 H2 O) into liver and adipose tissue lipids and comparing the results observed with those obtained from groups of non-treated rats ("control groups"). Dose-response curves were plotted.
Incorporation of ^3 H2 O into neutral fat in liver and adipose tissue and into liver cholesterol in vivo.
^3 H2 O incorporation into liver and adipose tissue lipids in vivo was tested in rats fed a high carbohydrate diet ad libitum for three days, supplemented with varying proportions (in percent of the diet) of the active compounds of Examples 4, 5 and 9. ^3 H2 O was then administered to the animals and the rates of incorporation of tritium (in μmole/gr/60 min) into various lipid fractions in liver and adipose tissue were determined and compared to the tritium incorporation under identical conditions in the control groups of rats.

[2] = tested on: GT of non-diabetic Psamomys; test: Effect on GT of non-diabetic Psamomys; format: in vivo
[3] = tested on: oxidation of glucose, palmitate or acetate to CO2; test: Oxidation of glucose, palmitate or acetate to CO2 in vivo; design: species or system rat; settings: rats, additional experiments
[4] = tested on: glucose tolerance; test: Glucose tolerance test (GTT) in diabetic Psamomys Obesus; format: in vivo; design: Sum of glucose values at 0, 1, 2, 3h, Treatment / Sum of glucose values at 0, 1, 2, 3h, Elimination of Treatment: unit not given here; settings: for Sum of glucose values at 0, 1, 2, 3h, Treatment: 0.1% in diet 30-70 days; for Sum of glucose values at 0, 1, 2, 3h, Elimination of Treatment: after return to normal diet
Description: (§2) Psamomys Obesus were fed "Amrod 935" Purina Chow diet supplemented with 0.1% of the active compound of Example 4, ad libitum, for periods of 80 or 140 days. The biological effects of the active compound in vivo were evaluated as reported in the following experiments.
Six Psamomys Obesus fed Purina Chow diet ad libitum were selected for their diabetic trait by following their glucose tolerance test (GTT). The selected animals were then treated by feeding the same Purina diet supplemented with 0.1% of the active compound of Example 4 for periods varying between 30-70 days. The GTT was followed periodically throughout this period, as well as for 50 more days after the drug-supplemented diet had been replaced with the normal diet. A diagram of the GTT curves obtained with one representative animal is shown in FIG. 6 of the attached drawings. The GTT values for all six animals are shown in the following Table VIII as the sum of the glucose values observed at 0^h, 1^h, 2^h, 3^h.

[5] = tested on: liver triglyceride; test: Liver triglyceride content of rats fed carbohydrate-rich diet; format: in vivo, rat; settings: for Reduction in liver triglyceride content (FIG. 4): carbohydrate-rich diet, compared to control group=100%
[6] = tested on: diabetes induced by steptozocin; test: Effect on diabetes induced by steptozocin in rats; format: in vivo, rat
[7] = tested on: serum lipids; test: Serum triglyceride and cholesterol levels in Psamomys Obesus; format: in vivo; settings: Table VI, young animals, 0.1% in diet, 140 days, n = 7
Description: as §2
Groups of young and old Psamomys were fed the above described diet for 140 and 80 days, respectively, whereafter the serum triglyceride and cholesterol levels were determined.

[8] = tested on: serum lipids; test: Serum lipids in rats fed high carbohydrate, fat-free diet; format: in vivo, rat
Description: as §1
The hypolipidemic effect was followed by measuring the triglycerides and cholesterol content in serum of treated rats as compared to non-treated rats.
Rats starved for 48 hours were fed a high carbohydrate, fat-free diet ad libitum for 3 or 5 days, supplemented with the active compound of Example 4 at the proportions shown in the following Table III. The serum lipids were determined in the treated rats and compared to a non-treated control group.
(§3) Rats starved for 48 hours were fed a high carbohydrate, fat-free diet supplemented with 0.25% of the active compound of Example 5 for 3 days ad libitum.

[9] = Body weight of Psamomys Obesus; format: in vivo; settings: Table VII; for Weight gain (gr) average: 0.1% in diet
Description: as §2
The above experiment was repeated with groups of young and old Psamomys and the body weight determined.

[10] = LD50 in rats (p.o.); settings: rat, in vivo, po
[11] = tested on: liver total lipid, triglyceride and cholesterol; test: 3H2O incorporation into liver lipids in vivo (total lipid, triglyceride, cholesterol); design: species or system rat; settings: n = 5
Description: ^3 H2 O incorporation into liver lipids in vico (in μmole/gr liver) was tested in rats fed for 3 days a single daily meal of a high carbohydrate diet containing 0.25% of the active compound of Example 4.
The procedure of Experiment I(b) was repeated for 5 days.
as §1

[12] = tested on: serum insulin; test: Serum insulin levels in diabetic Psamomys Obesus; format: in vivo; settings: non-treated diabetic animals 40-200 uu/ml
[13] = tested on: serum lipoprotein; test: Serum lipoprotein profile; format: in vivo, rat
Description: as §3

CC(C)(CCCCCCCCCCC(C)(C)CC(=O)O)CC(=O)O [Example 4, 3,3,14,14-Tetramethyl-hexadecane-1,16-dioic acid]
Inhibition of in vivo incorporation of 3H2O into cholesterol in liver ([1]; 100 mg/Kg body wt/day): 50%
Inhibition of in vivo incorporation of 3H2O into neutral fat (diglycerides, triglycerides) in liver ([1]; 100 mg/Kg body wt/day): 50%
Inhibition of in vivo incorporation of 3H2O into cholesterol in liver ([1]; 250 mg/Kg body wt/day): 80%
Inhibition of in vivo incorporation of 3H2O into neutral fat (diglycerides, triglycerides) in liver ([1]; 250 mg/Kg body wt/day): 80%
In vivo incorporation of 3H2O into neutral fat in adipose tissue ([1]; adipose tissue): block
Effect on GT of non-diabetic Psamomys [2]: affects neither
Oxidation of glucose, palmitate or acetate to CO2 in vivo [3]: does not affect
Correction of the GTT curve ([4]; 0.1% in diet, 30-70 days): correction of the GTT curve in 5 or 6 test animals
Sum of glucose values at 0, 1, 2, 3h, Treatment ([4]; Psamomys I, pretreatment 779, 1082): 364
Sum of glucose values at 0, 1, 2, 3h, Treatment ([4]; Psamomys II, pretreatment 947, 980, 958): 442
Sum of glucose values at 0, 1, 2, 3h, Treatment ([4]; Psamomys III, pretreatment 790): 296 and 329 and 326
Sum of glucose values at 0, 1, 2, 3h, Elimination of Treatment ([4]; Psamomys III): 849
Sum of glucose values at 0, 1, 2, 3h, Treatment ([4]; Psamomys IV, pretreatment 992): 358 and 336 and 465
Sum of glucose values at 0, 1, 2, 3h, Elimination of Treatment ([4]; Psamomys IV): 1049
Sum of glucose values at 0, 1, 2, 3h, Treatment ([4]; Psamomys V, pretreatment 867): 434 and 257 and 388
Sum of glucose values at 0, 1, 2, 3h, Elimination of Treatment ([4]; Psamomys V): 470
Sum of glucose values at 0, 1, 2, 3h, Treatment ([4]; Psamomys VI, pretreatment 717): 555
Diabetic trait after termination of the treatment ([4]; after termination of the treatment): revert to their original diabetic trait
Reduction in liver triglyceride content (FIG. 4) [5]: reduction in liver triglyceride content
Decrease in the triglyceride content of the liver ([5]; summary, rats): 30-50%
Effect on diabetes induced by steptozocin [6]: affects neither
Serum cholesterol ([7]; non-treated 65 ± 7): 46 ± 7 mg %
Serum triglycerides ([7]; non-treated 205 ± 29): 62 ± 15 mg %
Serum triglycerides ([8]; Table III, 0.06% of diet, ad libitum 3 or 5 days, n = 5, non-treated 41 ± 6): 15 ± 4 mg %
Serum cholesterol ([8]; Table III, 0.06% of diet, ad libitum 3 or 5 days, n = 5, non-treated 64 + 10): 38 ± 5 mg %
Serum triglycerides ([8]; Table III, 0.15% of diet, ad libitum 3 or 5 days, n = 5, non-treated 41 ± 6): 21 ± 4 mg %
Serum cholesterol ([8]; Table III, 0.15% of diet, ad libitum 3 or 5 days, n = 5, non-treated 64 + 10): 32 ± 5 mg %
Serum triglycerides ([8]; Table III, 0.25% of diet, ad libitum 3 or 5 days, n = 5, non-treated 41 ± 6): 15 ± 4 mg %
Serum cholesterol ([8]; Table III, 0.25% of diet, ad libitum 3 or 5 days, n = 5, non-treated 64 + 10): 31 ±3 mg %
Decrease in serum cholesterol ([8]; summary, rats): 50%
Decrease in serum glycerides ([8]; summary, rats): up to 60%
Weight gain (gr) average ([9]; old animals, initial 254 ± 52, non-treated gain 11 ± 13): -26 ± 8 gr
Weight gain (gr) average ([9]; young animals, n = 7, initial 92 ± 19, non-treated gain 57 ± 33): 36 ± 12 gr
Weight gain (gr) ([9]; young animals, individual values, non-treated 38, 38, 40, 55, 116): 25 gr and 29 gr and 31 gr and 32 gr and 33 gr and 38 gr and 62 gr
Siblings' weight grain (gr) ([9]; young animals, siblings a, non-treated sibling 55): 25 gr and 33 gr
Siblings' weight grain (gr) ([9]; young animals, siblings b, non-treated sibling 116): 31 gr and 38 gr
LD50 [10]: > 7000 mg/kg
3H2O incorporation into liver cholesterol ([11]; Table I, 3 days, single daily meal, 0.25% in high carbohydrate diet, non-treated 2.7 ± 1.1): 0.8 ± 0.2 μmole/gr liver
3H2O incorporation into liver triglyceride ([11]; Table I, 3 days, single daily meal, 0.25% in high carbohydrate diet, non-treated 107 ± 21): 19 ± 2 μmole/gr liver
3H2O incorporation into liver total lipid ([11]; Table I, 3 days, single daily meal, 0.25% in high carbohydrate diet, non-treated 157 ± 34): 47 ± 5 μmole/gr liver
3H2O incorporation into liver cholesterol ([11]; Table II, 5 days, procedure of Experiment I(b), non-treated 2.8 ± 0.8): 1.4 ± 0.4 μmole/gr liver
3H2O incorporation into liver triglyceride ([11]; Table II, 5 days, procedure of Experiment I(b), non-treated 71 ± 12): 20 ± 7 μmole/gr liver
3H2O incorporation into liver total lipid ([11]; Table II, 5 days, procedure of Experiment I(b), non-treated 107 ± 18): 53 ± 13 μmole/gr liver
Serum insulin levels during the treatment period [12]: lower than 40 uu/ml
Change in the serum lipoprotein profile ([13]; summary, rats): significant change in the serum lipoprotein profile

CC(C)(CCCCCCCCCCCCC(C)(C)CC(=O)O)CC(=O)O [Example 5, 3,3,16,16-Tetramethyl-octadecane-1,18-dioic acid]
Reduction in liver triglyceride content (FIG. 4) [5]: reduction in liver triglyceride content
Serum triglycerides ([8]; Table IV, 0.25% of diet, 3 days ad libitum, n = 9, non-treated 48 ± 6): 33 ± 3 mg %
Serum cholesterol ([8]; Table IV, 0.25% of diet, 3 days ad libitum, n = 12, non-treated 80 ± 12): 40 ± 11 mg %
HDL (VLDL + LDL) ([13]; Table V, 0.25% of diet, 3 days, non-treated 1.05): 1.50
LDL cholesterol ([13]; Table V, 0.25% of diet, 3 days, non-treated 19.00): 6.00 mg %
VLDL cholesterol ([13]; Table V, 0.25% of diet, 3 days, non-treated 23.00): 10.00 mg %
HDL cholesterol ([13]; Table V, 0.25% of diet, 3 days, non-treated 43.00): 24.00 mg %

CC(C)(CCCCCCCCCCC(C)(C)C(Br)C(=O)O)C(Br)C(=O)O (centres unmarked) [Example 9, 2,15-Dibromo-3,3,14,14-tetramethyl-hexadecane-1,16-dioic acid]
Reduction in liver triglyceride content (FIG. 4) [5]: reduction in liver triglyceride content

— patent publication US4689344A, “Long-chain α,ω-dicarboxylic acids and derivatives thereof and pharmaceutical compositions containing them” (Epis S.A., priority 1981, dated 1987)
